The results in this text go back to patent publication EP4755888A1 (ILAb Co., Ltd., priority 2023, dated 2025).

Molecules are shown by their SMILES. Where only a bound is given, the exact number is not on record here.

In this test the target is PD-1/PD-L1 (Homo sapiens, UniProt Q9NZQ7). Description: TR-FRET PD-1/PD-L1 binding inhibition at the molecular level (free proteins). The settings on record: Tag1-PD-L1 and Tag2-PD-1 proteins, twelve concentrations from 200 nM, 2 hours at room temperature, read-out: FRET assay (IC50). As to the method: In order to evaluate the inhibitory activity of the compounds synthesized according to the above Preparation Examples against PD-1/PD-L1 molecules in a free protein state,a TR-FRET (Time-Resolved Fluorescence Energy Transfer) experimetn was performed as described below.
Specifically, the compounds were prepared in a 96-well plate by serial dilution starting from 200 nM with 1/2 dilutions to obtain a total of twelve concentrations, and 2 µL of each compound solution was added to a 384-well plate. Thereafter, Tag1-PD-L1 protein and Tag2-PD-1 protein were each prepared at a 1x concentration, mixed at a ratio of 1:1, and 8 µL of the mixed solution was added to each well of the 384-well plate containing the compounds. Anti-Tag1 Eu Cryptate reagent and Anti-Tag2 XL665 antibody were each prepared at a 1* concentration, mixed at a ratio of 1:1, and 10 µL of the mixed solution was added to each well of the 384-well plate containing the compounds and proteins, followed by incubation at room temperature for 2 hours. Upon completion of the reaction, fluorescence signals at wavelengths of 620 nm and 665 nm were measured using a microplate reader.
A general note: TR-FRET usually uses a lanthanide donor and a delayed reading to cut background.

Chain of PD-1/PD-L1 (Q9NZQ7 19-238 limits assumed): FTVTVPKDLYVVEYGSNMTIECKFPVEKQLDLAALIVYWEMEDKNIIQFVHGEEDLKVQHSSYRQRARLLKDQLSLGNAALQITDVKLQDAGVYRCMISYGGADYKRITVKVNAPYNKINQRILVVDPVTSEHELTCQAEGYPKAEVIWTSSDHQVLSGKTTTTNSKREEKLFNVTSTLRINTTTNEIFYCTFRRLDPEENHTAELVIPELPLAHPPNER

For `O=C(Nc1cccc(-c2cccc(Nc3nccc4cc(CN5CC[C@@H](O)C5)cnc34)c2Cl)c1Cl)c1cc2n(n1)CCCC2N1CC[C@@H](C(=O)O)C1` (stereo partly drawn) [Compound 22, (3R)-1-(2-((2,2'-dichloro-3'-((3-(((R)-3-hydroxypyrrolidin-1-yl)methyl)-1,7-naphthyridin-8-yl)amino)-[1,1'-biphenyl]-3-yl)carbamoyl)-4,5,6,7-tetrahydropyrazolo[1,5-a]pyridin-4-yl)pyrrolidine-3-carboxylic acid], the IC50 was below 10 nM. Take `O=C(Nc1cccc(-c2cccc(Nc3nccc4cc(CN5CC[C@@H](O)C5)cnc34)c2Cl)c1Cl)c1cc2n(n1)CCCC2N1CCC(O)CC1` (stereo partly drawn) [Compound 23, N-(2,2'-dichloro-3'-((3-(((R)-3-hydroxypyrrolidin-1-yl)methyl)-1,7-naphthyridin-8-yl)amino)-[1,1'-biphenyl]-3-yl)-4-(4-hydroxypiperidin-1-yl)-4,5,6,7-tetrahydropyrazolo[1,5-a]pyridine-2-carboxamide]: the IC50 is 10 to 100 nM. Regarding `O=C(Nc1cccc(-c2cccc(Nc3nccc4cc(CN5CC[C@@H](O)C5)cnc34)c2Cl)c1Cl)c1cc2n(n1)CCCC2N1CCC(C(=O)O)CC1` (stereo partly drawn) [Compound 24, 1-(2-((2,2'-dichloro-3'-((3-(((R)-3-hydroxypyrrolidin-1-yl)methyl)-1,7-naphthyridin-8-yl)amino)-[1,1'-biphenyl]-3-yl)carbamoyl)-4,5,6,7-tetrahydropyrazolo[1,5-a]pyridin-4-yl)piperidine-4-carboxylic acid], the half-maximal inhibitory concentration (IC50) lay within 10 to 100 nM. Turning to `O=C(Nc1cccc(-c2cccc(Nc3nccc4cc(CN5CC[C@@H](O)C5)cnc34)c2Cl)c1Cl)c1cc2n(n1)CCCC2N1CC[C@@H](O)C1` (stereo partly drawn) [Compound 25, N-(2,2'-dichloro-3'-((3-(((R)-3-hydroxypyrrolidin-1-yl)methyl)-1,7-naphthyridin-8-yl)amino)-[1,1'-biphenyl]-3-yl)-4-((R)-3-hydroxypyrrolidin-1-yl)-4,5,6,7-tetrahydropyrazolo[1,5-a]pyridine-2-carboxamide], the half-maximal inhibitory concentration (IC50) was in the range of 10 to 100 nM. As to `O=C(O)CNC1CCCn2nc(C(=O)Nc3cccc(-c4cccc(Nc5nccc6cc(CN7CC[C@@H](O)C7)cnc56)c4Cl)c3Cl)cc21` (stereo partly drawn) [Compound 26, 2-((2-((2,2'-dichloro-3'-((3-(((R)-3-hydroxypyrrolidin-1-yl)methyl)-1,7-naphthyridin-8-yl)amino)-[1,1'-biphenyl]-3-yl)carbamoyl)-4,5,6,7-tetrahydropyrazolo[1,5-a]pyridin-4-yl)amino)acetic acid], the half-inhibitory concentration (IC50) is below 10 nM. Take `CC(C)(NC1CCCn2nc(C(=O)Nc3cccc(-c4cccc(Nc5nccc6cc(CN7CC[C@@H](O)C7)cnc56)c4Cl)c3Cl)cc21)C(=O)O` (stereo partly drawn) [Compound 27, 2-((2-((2,2'-dichloro-3'-((3-(((R)-3-hydroxypyrrolidin-1-yl)methyl)-1,7-naphthyridin-8-yl)amino)-[1,1'-biphenyl]-3-yl)carbamoyl)-4,5,6,7-tetrahydropyrazolo[1,5-a]pyridin-4-yl)amino)-2-methylpropanoic acid]: the half-inhibitory concentration (IC50) is 10 to 100 nM. `Cc1c(Nc2nccc3cc(CN4CC[C@@H](O)C4)cnc23)cccc1-c1cccc(NC(=O)c2cc3n(n2)CCCC3NCCO)c1Cl` (stereo partly drawn) [Compound 28, N-(2-chloro-3'-((3-(((R)-3-hydroxypyrrolidin-1-yl)methyl)-1,7-naphthyridin-8-yl)amino)-2'-methyl-[1,1'-biphenyl]-3-yl)-4-((2-hydroxyethyl)amino)-4,5,6,7-tetrahydropyrazolo[1,5-a]pyridine-2-carboxamide]: the half-inhibitory concentration (IC50) is below 10 nM. As to `Cc1c(Nc2nccc3cc(CN4CC[C@@H](O)C4)cnc23)cccc1-c1cccc(NC(=O)c2cc3n(n2)CCCC3N2CC[C@@H](O)C2)c1Cl` (stereo partly drawn) [Compound 29, N-(2-chloro-3'-((3-(((R)-3-hydroxypyrrolidin-1-yl)methyl)-1,7-naphthyridin-8-yl)amino)-2'-methyl-[1,1'-biphenyl]-3-yl)-4-((R)-3-hydroxypyrrolidin-1-yl)-4,5,6,7-tetrahydropyrazolo[1,5-a]pyridine-2-carboxamide], the IC50 is below 10 nM. The result for `CC(=O)NCCNC1CCCn2nc(C(=O)Nc3cccc(-c4cccc(Nc5nccc6cc(CN7CC[C@@H](O)C7)cnc56)c4C)c3Cl)cc21` (stereo partly drawn) [Compound 30, 4-((2-acetamidoethyl)amino)-N-(2-chloro-3'-((3-(((R)-3-hydroxypyrrolidin-1-yl)methyl)-1,7-naphthyridin-8-yl)amino)-2'-methyl-[1,1'-biphenyl]-3-yl)-4,5,6,7-tetrahydropyrazolo[1,5-a]pyridine-2-carboxamide] reads below 10 nM; that for `Cc1c(Nc2nccc3cc(CN4CC[C@@H](O)C4)cnc23)cccc1-c1cccc(NC(=O)c2cc3n(n2)CCCC3NC[C@@H]2CCC(=O)N2)c1Cl` (stereo partly drawn) [Compound 31, N-(2-chloro-3'-((3-(((R)-3-hydroxypyrrolidin-1-yl)methyl)-1,7-naphthyridin-8-yl)amino)-2'-methyl-[1,1'-biphenyl]-3-yl)-4-((((S)-5-oxopyrrolidin-2-yl)methyl)amino)-4,5,6,7-tetrahydropyrazolo[1,5-a]pyridine-2-carboxamide], below 10 nM; that for `Cc1c(Nc2nccc3cc(CN4CC[C@@H](O)C4)cnc23)cccc1-c1cccc(NC(=O)c2cc3n(n2)CCCC3NCC(=O)O)c1Cl` (stereo partly drawn) [Compound 32, 2-((2-((2-chloro-3'-((3-(((R)-3-hydroxypyrrolidin-1-yl)methyl)-1,7-naphthyridin-8-yl)amino)-2'-methyl-[1,1'-biphenyl]-3-yl)carbamoyl)-4,5,6,7-tetrahydropyrazolo[1,5-a]pyridin-4-yl)amino)acetic acid], below 10 nM. Regarding `Cc1c(Nc2nccc3cc(CN4CC[C@@H](O)C4)cnc23)cccc1-c1cccc(NC(=O)c2cc3n(n2)CCCC3N2CC[C@@H](C(=O)O)C2)c1Cl` (stereo partly drawn) [Compound 33, (3R)-1-(2-((2-chloro-3'-((3-(((R)-3-hydroxypyrrolidin-1-yl)methyl)-1,7-naphthyridin-8-yl)amino)-2'-methyl-[1,1'-biphenyl]-3-yl)carbamoyl)-4,5,6,7-tetrahydropyrazolo[1,5-a]pyridin-4-yl)pyrrolidine-3-carboxylic acid], the IC50 is below 10 nM. `Cc1c(Nc2nccc3cc(CN4CC[C@@H](O)C4)cnc23)cccc1-c1cccc(NC(=O)c2cc3n(n2)CCCC3N2CCC(O)CC2)c1Cl` (stereo partly drawn) [Compound 34, N-(2-chloro-3'-((3-(((R)-3-hydroxypyrrolidin-1-yl)methyl)-1,7-naphthyridin-8-yl)amino)-2'-methyl-[1,1'-biphenyl]-3-yl)-4-(4-hydroxypiperidin-1-yl)-4,5,6,7-tetrahydropyrazolo[1,5-a]pyridine-2-carboxamide]: the IC50 lay within 10 to 100 nM.

Turning to `Cc1c(Nc2nccc3cc(CN4CC[C@@H](O)C4)cnc23)cccc1-c1cccc(NC(=O)c2cc3n(n2)CCCC3N2CCC(C(=O)O)CC2)c1Cl` (stereo partly drawn) [Compound 35, 1-(2-((2-chloro-3'-((3-(((R)-3-hydroxypyrrolidin-1-yl)methyl)-1,7-naphthyridin-8-yl)amino)-2'-methyl-[1,1'-biphenyl]-3-yl)carbamoyl)-4,5,6,7-tetrahydropyrazolo[1,5-a]pyridin-4-yl)piperidine-4-carboxylic acid], the IC50 was below 10 nM.

As for `Cc1c(Nc2nccc3cc(CN4CC[C@@H](O)C4)cnc23)cccc1-c1cccc(NC(=O)c2cc3n(n2)CCCC3O)c1Cl` (stereo partly drawn) [Compound 36, N-(2-chloro-3'-((3-(((R)-3-hydroxypyrrolidin-1-yl)methyl)-1,7-naphthyridin-8-yl)amino)-2'-methyl-[1,1'-biphenyl]-3-yl)-4-hydroxy-4,5,6,7-tetrahydropyrazolo[1,5-a]pyridine-2-carboxamide], the IC50 was in the range of 10 to 100 nM.

Turning to `Cc1c(NC(=O)c2cc3n(n2)CCCC3NCCO)cccc1-c1cccc(Nc2nccc3cc(CN4CC[C@@H](O)C4)cnc23)c1Cl` (stereo partly drawn) [Compound 37, N-(2'-chloro-3'-((3-(((R)-3-hydroxypyrrolidin-1-yl)methyl)-1,7-naphthyridin-8-yl)amino)-2-methyl-[1,1'-biphenyl]-3-yl)-4-((2-hydroxyethyl)amino)-4,5,6,7-tetrahydropyrazolo[1,5-a]pyridine-2-carboxamide], the IC50 is below 10 nM.

For the compound `Cc1c(NC(=O)c2cc3n(n2)CCCC3N2CC[C@@H](O)C2)cccc1-c1cccc(Nc2nccc3cc(CN4CC[C@@H](O)C4)cnc23)c1Cl` (stereo partly drawn) [Compound 38, N-(2'-chloro-3'-((3-(((R)-3-hydroxypyrrolidin-1-yl)methyl)-1,7-naphthyridin-8-yl)amino)-2-methyl-[1,1'-biphenyl]-3-yl)-4-((R)-3-hydroxypyrrolidin-1-yl)-4,5,6,7-tetrahydropyrazolo[1,5-a]pyridine-2-carboxamide], the IC50 was in the range of 10 to 100 nM. In the case of `CC(=O)NCCNC1CCCn2nc(C(=O)Nc3cccc(-c4cccc(Nc5nccc6cc(CN7CC[C@@H](O)C7)cnc56)c4Cl)c3C)cc21` (stereo partly drawn) [Compound 39, 4-((2-acetamidoethyl)amino)-N-(2'-chloro-3'-((3-(((R)-3-hydroxypyrrolidin-1-yl)methyl)-1,7-naphthyridin-8-yl)amino)-2-methyl-[1,1'-biphenyl]-3-yl)-4,5,6,7-tetrahydropyrazolo[1,5-a]pyridine-2-carboxamide] it was below 10 nM.

Usually IC50 stands for the point on the concentration scale where inhibition reaches its midpoint.
